Measurements taken from ChEMBL document CHEMBL3853343, “Discovery of novel 2',4'-dimethyl-[4,5'-bithiazol]-2-yl amino derivatives as orally bioavailable TRPV4 antagonists for the treatment of pain: Part 2” (Bioorg Med Chem Lett, 2016).

Tests used:
[1] = Stability in rat liver microsomes assessed as parent compound remaining after 30 mins in presence or absence of NADPH; format: ADME, microsome; details: read-out: Stability
[2] = target: Transient receptor potential cation channel subfamily V member 4 (Homo sapiens, UniProt Q9HBA0); test: Antagonist activity at human TRPV4 assessed as inhibition of 4alpha-PDD-induced activation
Sequence of Transient receptor potential cation channel subfamily V member 4 (Homo sapiens, UniProt Q9HBA0) (Q9HBA0 whole entry): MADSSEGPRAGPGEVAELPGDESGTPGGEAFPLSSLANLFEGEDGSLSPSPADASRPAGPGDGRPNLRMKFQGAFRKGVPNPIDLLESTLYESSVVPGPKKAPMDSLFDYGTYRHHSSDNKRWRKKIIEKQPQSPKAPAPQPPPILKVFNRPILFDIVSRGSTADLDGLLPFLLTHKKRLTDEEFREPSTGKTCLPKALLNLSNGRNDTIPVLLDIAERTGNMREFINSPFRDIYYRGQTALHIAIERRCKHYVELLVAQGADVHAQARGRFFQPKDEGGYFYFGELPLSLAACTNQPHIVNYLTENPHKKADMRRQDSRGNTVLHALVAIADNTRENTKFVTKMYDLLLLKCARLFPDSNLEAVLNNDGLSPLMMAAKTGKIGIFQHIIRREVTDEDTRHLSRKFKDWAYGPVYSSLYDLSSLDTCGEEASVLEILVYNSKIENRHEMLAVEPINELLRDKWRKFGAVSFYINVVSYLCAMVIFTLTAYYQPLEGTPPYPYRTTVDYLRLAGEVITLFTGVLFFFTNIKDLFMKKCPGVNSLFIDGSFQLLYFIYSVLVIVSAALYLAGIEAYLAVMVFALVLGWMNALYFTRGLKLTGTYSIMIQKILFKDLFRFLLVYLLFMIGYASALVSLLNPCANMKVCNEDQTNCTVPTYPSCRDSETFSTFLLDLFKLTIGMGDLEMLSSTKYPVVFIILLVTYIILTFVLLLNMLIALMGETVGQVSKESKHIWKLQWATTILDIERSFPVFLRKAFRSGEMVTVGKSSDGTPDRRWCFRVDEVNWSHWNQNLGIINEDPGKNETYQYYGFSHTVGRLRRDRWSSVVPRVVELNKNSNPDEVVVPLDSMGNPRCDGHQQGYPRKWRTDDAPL

[3] = Stability in human liver microsomes assessed as parent compound remaining after 30 mins in presence or absence of NADPH; format: ADME, microsome; details: read-out: Stability
Rattus norvegicus [4] = test: Analgesic activity in rat assessed as reversal of complete Freund's adjuvant-induced mechanical hyperalgesia at 30 mg/kg, po after 1 hr relative to control; format: functional
Rattus norvegicus [5] = test: Analgesic activity in rat assessed as reversal of complete Freund's adjuvant-induced mechanical hyperalgesia at 30 mg/kg, po after 5 hrs relative to control; format: functional
[6] = target: Transient receptor potential cation channel subfamily V member 4 (Rattus norvegicus, UniProt Q9ERZ8); test: Antagonist activity at rat TRPV4 assessed as inhibition of 4alpha-PDD-induced activation
Sequence of Transient receptor potential cation channel subfamily V member 4 (Rattus norvegicus, UniProt Q9ERZ8) (Q9ERZ8 whole entry): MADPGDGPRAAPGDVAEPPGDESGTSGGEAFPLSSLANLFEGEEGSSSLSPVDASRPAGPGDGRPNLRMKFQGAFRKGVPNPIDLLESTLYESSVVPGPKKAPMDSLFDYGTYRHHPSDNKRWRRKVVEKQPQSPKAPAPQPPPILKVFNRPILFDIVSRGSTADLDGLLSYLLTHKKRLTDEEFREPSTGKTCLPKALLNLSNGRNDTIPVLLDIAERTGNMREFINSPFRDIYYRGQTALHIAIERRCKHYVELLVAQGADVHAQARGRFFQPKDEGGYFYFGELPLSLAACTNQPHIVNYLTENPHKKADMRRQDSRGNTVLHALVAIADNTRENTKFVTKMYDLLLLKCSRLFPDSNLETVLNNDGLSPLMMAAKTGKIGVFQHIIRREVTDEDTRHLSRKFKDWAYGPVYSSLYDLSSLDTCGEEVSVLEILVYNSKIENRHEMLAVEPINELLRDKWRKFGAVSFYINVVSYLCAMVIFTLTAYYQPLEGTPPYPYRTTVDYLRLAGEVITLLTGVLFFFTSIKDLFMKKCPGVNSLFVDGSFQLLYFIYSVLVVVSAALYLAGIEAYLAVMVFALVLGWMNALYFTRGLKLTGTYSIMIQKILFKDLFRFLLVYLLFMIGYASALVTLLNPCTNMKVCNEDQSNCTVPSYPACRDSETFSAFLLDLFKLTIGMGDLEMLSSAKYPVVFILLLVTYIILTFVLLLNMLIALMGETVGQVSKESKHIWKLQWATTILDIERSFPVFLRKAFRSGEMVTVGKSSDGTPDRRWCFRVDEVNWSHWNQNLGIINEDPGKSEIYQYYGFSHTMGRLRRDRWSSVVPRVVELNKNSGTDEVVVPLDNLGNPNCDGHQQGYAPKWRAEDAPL

[7] = Antagonist activity at guinea pig TRPV4 assessed as inhibition of 4alpha-PDD-induced activation; parameters: species or system Cavia porcellus
[8] = Selectivity ratio of IC50 for rat TRPV4 to IC50 for human TRPV4
[9] = Ratio of free plasma concentration to IC50 for TRPV4 in guinea pig; format: ADME, cell-free, Cavia porcellus
[10] = Protein binding in guinea pig; format: ADME, Cavia porcellus; details: read-out: PB (converted)
Cavia porcellus = test: Analgesic activity in po dosed Dunkin-Hartley guinea pig complete Freund's adjuvant-induced mechanical hyperalgesia model assessed as reversal in paw withdrawal threshold measured up to 6 hrs post dose relative to control; format: functional
[11] = Plasma concentration in po dosed Dunkin-Hartley guinea pig complete Freund's adjuvant-induced mechanical hyperalgesia model measured up to 6 hrs post dose; format: ADME, organism-based, Cavia porcellus

Compound	remaining at 0.5 h [1] [%]	IC50 [2] [nM]	remaining at 0.5 h [3] [%]	IC50 [6] [nM]	IC50 [7] [nM]	further results
Cc1nc(C)c(-c2csc(Nc3ccc(C(=O)N4[C@@H]5CC[C@H]4C/C(=N/OCC(N)=O)C5)cn3)n2)s1	84.8	24	89	–	–	–
COc1ccc2c(c1)c(CC(=O)O)c(C)n2C(=O)c1ccc(Cl)cc1 [INDOMETHACIN]	–	–	–	–	–	Activity (Rattus norvegicus [4]): 11.4%; Activity (Rattus norvegicus [5]): 6.1%
CNC(=O)N1CC2CCC(C1)N2C(=O)c1ccc(Nc2nc(-c3sc(C)nc3C)cs2)nc1	88.5	770	83.5	–	–	–
Cc1nc(C)c(-c2csc(Nc3ccc(C(=O)N4[C@@H]5CC[C@H]4C/C(=N/OCCO)C5)cn3)n2)s1	74.5	6	84.9	–	–	–
Cc1nc(C)c(-c2csc(Nc3ccc(C(=O)N4[C@@H]5CC[C@H]4C[C@@H](Oc4ncc(C(F)(F)F)cn4)C5)cn3)n2)s1	–	4.8	–	120	2.7	–
CC(=O)N[C@H]1C[C@H]2CC[C@@H](C1)N2C(=O)c1ccc(Nc2nc(-c3sc(C)nc3C)cs2)nc1	–	80	–	–	–	–
Cc1nc(C)c(-c2csc(Nc3ccc(C(=O)N4[C@@H]5CC[C@H]4C[C@@H](CO)C5)cn3)n2)s1	–	41	–	–	–	–
Cc1c(C(=O)Nc2cccc(C(F)(F)F)c2)cc(-c2ccccc2)n1CCCN1CCOCC1	–	57	–	–	–	–
Cc1nc(C)c(-c2csc(Nc3ccc(C(=O)N4[C@@H]5CC[C@H]4C[C@@H](OC(=O)NCCF)C5)cn3)n2)s1	–	6.7	–	290	6.2	–
CO[C@H]1C[C@H]2CC[C@@H](C1)N2C(=O)c1ccc(Nc2nc(-c3sc(C)nc3C)cs2)nc1	–	2.4	–	–	–	–
Cc1nc(C)c(-c2csc(Nc3ccc(C(=O)N4C5CCC4CC(=O)C5)cn3)n2)s1	–	24	–	360	45	Ratio IC50 [8]: 15
Cc1nc(C)c(-c2csc(Nc3ccc(C(=O)N4[C@@H]5CC[C@H]4C[C@@H](NC(=O)CC(F)(F)F)C5)cn3)n2)s1	–	19	–	–	–	–
Cc1nc(C)c(-c2csc(Nc3ccc(C(=O)N4C5CCC4CNC5)cn3)n2)s1	63.9	620	64.9	–	–	–
CC(=O)N1CC2CCC(C1)N2C(=O)c1ccc(Nc2nc(-c3sc(C)nc3C)cs2)nc1	92.1	32	59.4	600	21	–
Cc1nc(C)c(-c2csc(Nc3ccc(C(=O)N4[C@@H]5CC[C@H]4C/C(=N/OC4CCN(C)CC4)C5)cn3)n2)s1	83.7	4.5	77	57	6.4	–
Cc1nc(C)c(-c2csc(Nc3ccc(C(=O)N4[C@@H]5CC[C@H]4C[C@@H](O)C5)cn3)n2)s1	–	32	–	1000	33	–
Cc1nc(C)c(-c2csc(Nc3ccc(C(=O)N4C5COCC4CC(=O)C5)cn3)n2)s1	–	19	–	800	27	Ratio [9]: 1.9; Ratio IC50 [8]: 42; fraction unbound [10]: 0.1; Activity (Cavia porcellus): 30.8%; concentration at 6 h [11]: 515 ng/mL
Cc1nc(C)c(-c2csc(Nc3ccc(C(=O)N4[C@@H]5CC[C@H]4C[C@@H](OCCO)C5)cn3)n2)s1	–	6.2	–	200	10	–
COC(=O)N1CCN(C(=O)c2ccc(Nc3nc(-c4sc(C)nc4C)cs3)nc2)CC1	77.9	37	94.1	1100	56	–
Cc1nc(C)c(-c2csc(Nc3ccc(C(=O)N4[C@@H]5CC[C@H]4C[C@@H](N)C5)cn3)n2)s1	–	530	–	–	–	–
Cc1nc(C)c(-c2csc(Nc3ccc(C(=O)N4[C@@H]5CC[C@H]4C[C@H](O)C5)cn3)n2)s1	–	650	–	–	–	–
Cc1nc(C)c(-c2csc(Nc3ccc(C(=O)N4[C@@H]5CC[C@H]4C/C(=N/O)C5)cn3)n2)s1	38.8	8.4	80.5	–	–	–
Cc1nc(C)c(-c2csc(Nc3ccc(C(=O)N4C5CNCC4COC5)cn3)n2)s1	71.5	3.2	57.9	100	4.3	–
Cc1nc(C)c(-c2csc(Nc3ccc(C(=O)N4[C@@H]5CC[C@H]4CC(=NOCC(C)(C)O)C5)cn3)n2)s1	75.5	4.4	70	–	8.3	–

Further compounds by falling IC50 [2], results first:

remaining at 0.5 h [1] [%]	IC50 [2] [nM]	remaining at 0.5 h [3] [%]	IC50 [6] [nM]	IC50 [7] [nM]	Compound	further results
68.3	3.2	72.6	410	8.8	Cc1nc(C)c(-c2csc(Nc3ccc(C(=O)N4C5CCC4CN(c4ccc(Cl)cc4)C5)cn3)n2)s1	–
59.1	2.9	64.5	57	3.3	Cc1nc(C)c(-c2csc(Nc3ccc(C(=O)N4[C@@H]5CC[C@H]4C/C(=N/OCCCO)C5)cn3)n2)s1	–
0	2.8	0.58	–	–	Cc1nc(C)c(-c2csc(Nc3ccc(C(=O)N4C5CCC4CN(C4CCCCC4)C5)cn3)n2)s1	–
8.5	2.1	0	–	–	Cc1nc(C)c(-c2csc(Nc3ccc(C(=O)N4C5CCC4CN(CC(F)(F)F)C5)cn3)n2)s1	–
–	1.9	–	–	–	CCNC(=O)O[C@H]1C[C@H]2CC[C@@H](C1)N2C(=O)c1ccc(Nc2nc(-c3sc(C)nc3C)cs2)nc1	–
43.8	1.8	33.7	–	–	COC(=O)N1CC2CCCC(C1)N2C(=O)c1ccc(Nc2nc(-c3sc(C)nc3C)cs2)nc1	–
53	1.7	48.6	53	2	COC(=O)N1CC2CCC(C1)N2C(=O)c1ccc(Nc2nc(-c3sc(C)nc3C)cs2)nc1	–
49.6	1.1	43	29	2.3	Cc1nc(C)c(-c2csc(Nc3ccc(C(=O)N4[C@@H]5CC[C@H]4C/C(=N/OC[C@@H](O)C(F)(F)F)C5)cn3)n2)s1	–
12.5	1	79.1	–	–	CO/N=C1\C[C@H]2CC[C@@H](C1)N2C(=O)c1ccc(Nc2nc(-c3sc(C)nc3C)cs2)nc1	–
89	0.9	72.7	20	0.7	Cc1nc(C)c(-c2csc(Nc3ccc(C(=O)N4C5CCC4CN(c4ccc(Cl)cn4)C5)cn3)n2)s1	–
49.2	0.57	64.1	15	2.7	COC(=O)N1CCN(C(=O)c2ccc(Nc3nc(-c4sc(C)nc4C)cs3)nc2)C(C(F)(F)F)C1 (stereo not given)	–
50.4	0.36	47.7	18	2	Cc1nc(C)c(-c2csc(Nc3ccc(C(=O)N4[C@@H]5CC[C@H]4C/C(=N/OCC(F)(F)F)C5)cn3)n2)s1	–
68.4	0.3	76.4	16	2	Cc1nc(C)c(-c2csc(Nc3ccc(C(=O)N4C5CCC4CN(c4ncc(Cl)cn4)C5)cn3)n2)s1	–
